According to US5550110A, “Endothelin Antagonists II” (Warner-Lambert Company, priority 1994, dated 1996):
Peptide text beside a SMILES is read from it.

What was measured:
[1] = target: ETB (rabbit pulmonary artery) (Oryctolagus cuniculus, UniProt Q9N0W7)
From the text: (§1) In Vitro Antagonism of ET-1 Stimulated Vasoconstriction in the Rabbit Femoral Artery (ETA) and Sarafotoxin 6c Stimulated Vasoconstriction in the Rabbit Pulmonary Artery (ETB)
(§2) Male New Zealand rabbits were killed by cervical dislocation and exsanguination. Femoral and pulmonary arteries were isolated, cleaned of connective tissue, and cut into 4-mm rings. The endothelium was denuded by placing the rings over hypodermic tubing (32 guage for femoral rings and 28 guage for pulmonary rings, Small Parts, Inc, Miami, Fla.) and gently rolling them. Denuded rings were mounted in 20 mL organ baths containing Krebs-bicarbonate buffer (composition in mM: NaCl, 118.2; NaHCO3, 24.8; KCl, 4.6; MgSO4 7.H2 O, 1.2; KH2 PO4, 1.2; CaCl2.2H2 O; Ca--Na2 EDTA, 0.026; dextrose, 10.0), that was maintained at 37° C. and gassed continuously with 5% CO2 in oxygen (pH 7.4). Resting tension was adjusted to 3.0 g for femoral and 4.0 g pulmonary arteries; the rings were left for 90 minutes to equilibrate.

[2] = tested on: ETA (rabbit femoral artery); details: ET-1 as agonist, endothelium-denuded rings
From the text: as §1, §2

[3] = tested on: CaCO-2 cells (human colon adenocarcinoma cell line); type: in vitro ADME
Protocol: For experiments, the cells were counted, then diluted to 2.5×10^5 cells/mL for planting (400 μL per well) onto Snapwell culture membranes with 2.5 mL media in the lower chamber. Media in the […] was changed every 2 to 3 days. Cells used for this series of experiments were between passage 38 and 91. 2-[N-Morpholino]ethanesulfonic acid (MES)+25 mM glucose was used as incubation buffer for all the experiments and all incubation solutions were prepared to an osmotic pressure of 280 to 300 milliosmoles. The concentration of the endothelin antagonist being studied (for all experiments) was 100 μM and another endothelin antagonist with similar HPLC characteristics (retention time 2-3 minutes from the ET antagonist being studied, and similar chemical characteristics) was used at a concentration of 25 μM as an internal standard to compensate for any injection error. Prior to the start of the experiment, the transepithelial electrical resistance (TEER) was measured for each Snapwell (in media) at three points of the membrane. […] The membranes were washed by swirling in 0.9% normal saline and mounted in the pretreated diffusion chambers [0.1 mg/mL human serum albumin for 1 to 2 hours at 37° C. with O2 bubbling followed by air drying at 37° C. overnight, then with 4.5 to 5.0 mL dosing solution (MES+glucose+^14 C-PEG-4000 (5000 dpm/50 μL)+drug) for 5 minutes and 4.5 to 5.0 mL MES+glucose rinse just before the experiment.] The apical (donor) side was filled with 4.5 to 5.0 mL dosing solution, the basolateral (receiver) side with MES+glucose. Samples were removed from the donor and receiver compartments over the course of the experiment and analyzed for ^14 C-PEG 4000 (cell membrane integrity) and endothelin content.

[4] = target: T1, human ETB receptor (cloned, CHO-K1 cells) (Homo sapiens, UniProt P24530); experiment: Human Endothelin Receptor Binding Assay-B (hERBA-B), binding to human cloned receptor; details: membranes of transfected CHO-K1 cells
T1 construct: The 1.35 kb HindIII/XbaI restriction fragment of clone 12 of the hETBR was inserted into the eukaryotic expression vector pRcCMV; expressed in transfected cells; host or cells: CHO-K1
T1 sequence (P24530 27-442): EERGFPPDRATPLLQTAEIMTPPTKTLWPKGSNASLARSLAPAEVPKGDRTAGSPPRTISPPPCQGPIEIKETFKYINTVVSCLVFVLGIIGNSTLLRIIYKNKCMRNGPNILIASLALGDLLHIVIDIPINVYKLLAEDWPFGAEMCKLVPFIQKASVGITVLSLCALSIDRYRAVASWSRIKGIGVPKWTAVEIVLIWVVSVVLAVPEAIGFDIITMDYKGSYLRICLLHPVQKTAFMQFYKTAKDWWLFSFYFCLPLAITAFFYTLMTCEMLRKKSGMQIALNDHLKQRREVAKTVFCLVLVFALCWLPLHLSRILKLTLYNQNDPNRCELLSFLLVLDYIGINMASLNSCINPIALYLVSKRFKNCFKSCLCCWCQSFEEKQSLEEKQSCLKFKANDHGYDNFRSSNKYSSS
Protocol: Human Endothelin Receptor Biding Assay-B (hERBA-B) [^125 I]-ET-1 Binding to Human Cloned Receptor
A human placenta cDNA library was constructed in bacteriophage lambda gt11 and approximately 10^6 plaques were screened with a ^32 P-labelled 1.3 kilobase HindIII/XbaI restriction fragment of rat ETBR cDNA as a probe. Plaque hybridization was carried out for 16 hours at 42° C. in a solution containing 100 μg/mL calf thymus DNA, 1×Denhardt's solution, 5×sodium saline citrate (SSC), 50 mM sodium phosphate, and 0.1% sodium lauryl sulfate (SDS). The membranes were then washed twice for 30 minutes each in 2×SSC and 0.1% SDS at 42° C. A final wash was carried out in 0.5×SSC with 0.1% SDS at 55° C. The positive clones were purified and subcloned into a pUC19 plasmid. DNA sequencing was performed by the dideoxynucleotide chain termination method and human ETBR (h ETBR) was identified by reading both DNA strands.
The 1.35 kb HindIII/XbaI restriction fragment of clone 12 of the hETBR was inserted into the eukaryotic expression vector pRcCMV (pRcCMV-hETBR). CHO-K1 cells were transfected with 20 μg of pRcCMV-hETBR by electroporation at 300 V, 800 μF, low ohms for 1 second. […] Expression levels of human ETBR were determined by the receptor binding assay described below using [^125 I]-ET-3 as the radioligand. […]

Sequence of ETB (rabbit pulmonary artery) (Q9N0W7 27-441): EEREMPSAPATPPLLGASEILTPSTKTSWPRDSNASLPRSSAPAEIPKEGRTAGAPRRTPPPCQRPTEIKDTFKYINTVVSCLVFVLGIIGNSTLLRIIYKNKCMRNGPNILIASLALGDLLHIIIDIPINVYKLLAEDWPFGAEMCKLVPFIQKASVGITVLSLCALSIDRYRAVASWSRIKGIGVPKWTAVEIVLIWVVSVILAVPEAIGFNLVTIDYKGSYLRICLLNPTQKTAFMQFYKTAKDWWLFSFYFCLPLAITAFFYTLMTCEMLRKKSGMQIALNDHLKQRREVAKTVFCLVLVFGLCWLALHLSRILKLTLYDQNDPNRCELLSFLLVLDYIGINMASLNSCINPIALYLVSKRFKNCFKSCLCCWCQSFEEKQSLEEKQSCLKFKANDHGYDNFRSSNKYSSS

SMILES	Kb [1]	pA2 Femoral [2]	absorption in the gut suggested by CaCO-2 values [3]	IC50 [4]
CC[C@H](C)[C@H](NC(=O)[C@H](CC(=O)O)NC(=O)[C@H](CC(C)C)NC(=O)[C@H](NC(C)=O)C1c2ccccc2CCc2ccccc21)C(=O)N[C@H](C(=O)N[C@@H](Cc1c[nH]c2ccccc12)C(=O)O)[C@@H](C)CC [Example 1, Ac-D-Bhg-Leu-Asp-Ile-Ile-Trp] (HELM PEPTIDE1{[ac].[O=C([C@H](N[*:1])C1c2ccccc2CCc2ccccc21)[*:2]].L.D.I.I.W}$$$$V2.0)	79.4 nM	6.8	5-10%	210 nM
CC[C@H](C)[C@H](NC(=O)[C@H](CC(=O)O)NC(=O)[C@H](CC(C)C)NC(=O)[C@H](NC(C)=O)C1c2ccccc2CCc2ccccc21)C(=O)N(C)[C@H](C(=O)N[C@@H](Cc1c[nH]c2ccccc12)C(=O)O)[C@@H](C)CC [Example 19, Ac-D-Bhg-Leu-Asp-Ile-N-MeIle-Trp] (HELM PEPTIDE1{[ac].[O=C([C@H](N[*:1])C1c2ccccc2CCc2ccccc21)[*:2]].L.D.I.[meI].W}$$$$V2.0)	251 nM	7.3	5-10%	25 nM
